The values that follow come from paper PMC5418348, “Identification of a Novel Allosteric Inhibitory Site on Tryptophan Hydroxylase 1 Enabling Unprecedented Selectivity Over all Related Hydroxylases” (Frontiers in Pharmacology, 2017).

The structures appear in SMILES notation. pIC50, pKd: −log10 of the molar value. “Also recorded” adds a separate entry of the source. Where two headings read alike, the source gives them in different places.

One series addresses T1, TPH1 (104–394) (Homo sapiens, UniProt P17752).
T1 construct: His6 (N, cleaved yes); made in house; host or cells: Escherichia coli BL21 Rosetta (DE3)
Nature of the series: Biacore surface plasma resonance binding / competition experiments. Conditions: SPR, previously estimated, data not shown; read-out: KD toward TPH1. Here is the method:
Biosensor experiments were performed on a Biacore T100 instrument (GE Healthcare). Biotinylation and capture of TPH1 was performed by adding a volume of freshly prepared EZ-link solution (dissolved in water) to an aliquot of TPH1(104–394) in a 2:1 molar ratio and incubated on ice. After 30 min of incubation, the reaction was stopped by the addition of 100 mM of Tris pH7.5. Unreacted biotin was removed by passing the solution over a fast desalting column (Thermo scientific #89849, equilibrated with PBS, 0.5 mM TCEP) three times. Biotinylated protein was aliquoted and kept at -80°C until use. Biotinylated TPH1 (104–394) was immobilized at 22°C on a SA chip surface (GE Healthcare) equilibrated with 10 mM Hepes, 150 mM NaCl, 1 mM TCEP, 0.05% Tween20, 5% glycerol, pH7.6. Approximately 3200RU were immobilized using this procedure. A streptavidin surface served as the reference.
Binding experiments were performed at 20°C using 10 mM Hepes, 150 mM NaCl, 1 mM TCEP, 0.05% Tween20, 5% glycerol, pH7.6, 2% DMSO as running buffer. […] Using a flow rate of […], samples were injected for 120 s and dissociation was monitored for 240 s. […]

The subject of another series is TPH1. Also noted: method as in Liu et al., 2008. The note with it: ref Liu et al., 2008; read-out: TPH1 activity IC50 (literature); cited from earlier work.
For the next series, the system named is BON cells. Nature of the series: LDH cell toxicity assay in BON cells. It counts as cell-based, human. The note with it: Figure 5B. As to the method: (§1) 5-HT newly synthesized through TPH activity was assessed both in vitro and in vivo by addition of deuterium labeled substrate (deuterated tryptophan – TRP-d5) and subsequently generated deuterium labeled product (deuterated serotonin – 5HT-d4) (Figure 6A). BON (human pancreatic carcinoid) cell line was a gift from Dr. Courtney M. Townsend (University of Texas, Galveston, TX, USA) and cultured as previously described ([Tran et al., 2004]). Cells were seeded overnight in 96-well plates at 1.2 × 10^5 cells per well in 200 μL growth media containing 1% FBS, and incubated at 37°C, 5% CO2. After 24 h, cell media was exchanged for […] serum-free media. All reagents added to the cells in subsequent steps were diluted in serum-free media. Cells were treated with 25 μL of either compound or DMSO vehicle (1 % v/v) for 15 min at 37°C, 5% CO2 and then treated with 25 μL 196 mM deuterated-tryptophan (Isotec, UK) for a further 2 h at 37°C, 5% CO2. BON cell lysates were then prepared by removal of all media with subsequent addition of […] HTAB. These lysates were further analyzed for D4-5-HT content by LCMS. Cell toxicity was also assessed in BON cells using a standard lactate dehydrogenase (LDH) assay according to instructions.

In series [1] the test system is BON (human pancreatic carcinoid) cell line. Nature of the series: BON cell assay of D4-5-HT production from deuterated tryptophan. It counts as cell-based. Conditions: BON cells; for pIC50: read-out: IC50 inhibition of D4-5-HT production. Here is the method: as §1
The target of a further series is T2, Human TPH-1 (Homo sapiens, UniProt P17752).
T2 sequence (P17752 1-444): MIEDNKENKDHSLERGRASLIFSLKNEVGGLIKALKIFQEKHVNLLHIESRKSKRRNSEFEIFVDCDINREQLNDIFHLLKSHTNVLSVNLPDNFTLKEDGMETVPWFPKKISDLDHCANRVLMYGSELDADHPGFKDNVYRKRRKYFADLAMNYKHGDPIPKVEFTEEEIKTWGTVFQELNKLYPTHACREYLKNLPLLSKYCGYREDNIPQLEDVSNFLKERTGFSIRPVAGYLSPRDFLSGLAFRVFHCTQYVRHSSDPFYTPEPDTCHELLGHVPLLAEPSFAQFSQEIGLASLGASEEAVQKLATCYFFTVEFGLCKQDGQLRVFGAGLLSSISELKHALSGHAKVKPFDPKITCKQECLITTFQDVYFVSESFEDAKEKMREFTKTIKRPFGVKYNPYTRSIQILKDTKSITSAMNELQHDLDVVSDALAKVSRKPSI
Nature of the series: In vitro human TPH-1 enzyme activity assay (fluorescence). Type of series: biochemical. Conditions: literature ref Liu et al., 2008. Here is the method:
Human TPH-1 and Human TPH-2 enzyme assays were carried out at room temperature with atmosphere oxygen in a volume of 25 μL. A base buffer of 40 mM HEPES pH 7.0, 200 mM ammonium sulfate was made and stored at 4°C. On the day of assay, final concentrations of 10 μM iron ammonium sulfate, 0.1 mg mL^-1 BSA, 25 μg mL^-1 catalase, and 0.04% Chaps were added and designated as enzyme buffer. Substrate buffer was made the same way but for the addition of a final concentration of 10 mM DTT. Enzymes were diluted as follows: 1.25x = 12.5 nM TPH1 (Final = 10 nM) or 1.25x = 37.5 nM TPH2 (Final = 30 nM) in enzyme buffer. Substrates were diluted as follows: 5x = 200 μM (6R)-5,6,7,8-Tetrahydrobiopterin dihydrochloride (BH4) (Final = 40 μM) and 5x = 100 μM Tryptophan (Final = 20 μM) in substrate buffer. Compounds were serially diluted 1:1 in DMSO to 50x = 500 μM (Final = 10 μM). Assays were performed in GNF Custom Greiner Black 384-well plates. Compounds were added at 0.5 μL per well. Enzymes were added at 20 μL per well. Compounds and enzymes were pre-incubated 15 min at room temperature. Substrates were added at 5 μL per well to initiate the reaction. The plates were covered and incubated at room temperature: 30 min for TPH1 and 60 min for TPH2. The reactions were quenched with the addition of 25 μL 30% sulfuric acid.

Usually pKd stands for −log10 of the Kd, conventionally taken in molar units. Broadly, the pIC50 is −log10 of the IC50, conventionally taken in molar units.

For the compound `C[C@H](O)[C@H](O)C1=Nc2c(nc(N)[nH]c2=O)NC1` [BH2], the negative logarithm of the Kd (pKd) on TPH1 (104–394) is 4.96.
For `N[C@@H](Cc1ccc(Cl)cc1)C(=O)O` (racemic) [pCPA, p-chlorophenylalanine], the pIC50 was 3.60 in the series with TPH1 and under 4.52 in series [1] (Figure 5B, 15 min compound then 2 h deuterated tryptophan, n = 3). Also, the LDH tox with BON cells is over 30 µM. Besides, the “IC50 inhibition of D4-5-HT production” value in series [1] is given as “could not be established; also recorded: not measurable”. For the same compound, the “difference between literature TPH1 IC50 and the values reported here” value at Human TPH-1 was “approximately 50 fold”.
Take `Nc1nc(OC(c2ccc(-c3cccc(F)c3)cc2)C(F)(F)F)cc(-c2ccc(C[C@H](N)C(=O)O)cc2)n1` (stereo partly shown) [LP533401]: the pIC50 in the series on TPH1 is 6.15; in series [1], 4.91. This compound registered an LDH tox in the series with BON cells of over 30 µM.
As for `N[C@@H](Cc1c[nH]c2ccccc12)C(=O)O` [L-Trp], the pKd on TPH1 (104–394) was 4.25.
